Laboratory results from patent publication US20180354980A1, “NOVEL TRITERPENE-GLYCOSIDES AS SWEETENERS OR SWEETENER ENHANCER” (Analyticon Discovery GmbH, priority 2015, published 2018).

Tests used:
panel of 4 panelists = assay: Organoleptic test of the compounds against sucrose and Pterocaryoside A; assay type: in vivo; design: key to sweetness compared to sucrose: 3: sweeter than the control solution; 2: sweetness comparable with the control solution; 1: less sweet than the control solution but still sweet; details: for sweetness compared to sucrose: 0.4 mg/ml (400 ppm) in non-carbonated mineral water vs sucrose 20 mg/ml, panel of 4 panelists; for comment (bitter off taste): 0.4 mg/ml (400 ppm) in non-carbonated mineral water, compared with Pterocaryoside A
Experimental: (§1) The isolated pure compounds were dissolved in non-carbonated mineral water (“Fonsana Quelle”) in a concentration of 0.4 mg/ml (400 ppm). The sweet taste of each sample was compared by a panel of 4 panelists with a solution of sucrose in a concentration of 20 mg/ml.

[1] = in vivo; cited from earlier work
panel = details: ammonium salt; panel rating; cited from earlier work
[2] = Solubility in non-carbonated mineral water at the test concentration; assay type: physicochemical; details: 0.4 mg/ml in non-carbonated mineral water
Experimental: as §1

Molecule | sweetness compared to sucrose (panel of 4 panelists) | comment (bitter off taste) (panel of 4 panelists) | also measured
C=C(C)C(O)C(O)CC(C)(O)C1CCC2(C)C1C(O[C@@H]1OCC(O)[C@H](O)[C@H]1O)CC1C(C)(CCC(=O)O)C(C(=C)C)CCC12C (stereo in doubt) [Compound D, 3-(6,9a,9b-trimethyl-7-(prop-1-en-2-yl)-3-(2,4,5-trihydroxy-6-methylhept-6-en-2-yl)-4-((2S,3R,4S,5S)-3,4,5-trihydroxytetrahydro-2H-pyran-2-yloxy)dodecahydro-1H-cyclopenta[a]naphthalen-6-yl)propanoic acid] | 3 | less bitter than Pterocaryoside A | –
C=C(C)C1CCC2(C)C(CC(O[C@@H]3OC[C@H](O)[C@H](O)[C@H]3O)C3C(C4(C)CCC(C(C)(C)O)O4)CCC32C)C1(C)CCC(=O)O (stereo partly drawn) [Compound A, 3-(3-(5-(2-hydroxypropan-2-yl)-2-methyltetrahydrofuran-2-yl)-6,9a,9b-trimethyl-7-(prop-1-en-2-yl)-4-((2S,3R,4S,5S)-3,4,5-trihydroxytetrahydro-2H-pyran-2-yloxy)dodecahydro-1H-cyclopenta[a]naphthalen-6-yl)propanoic acid] | 3 | less bitter than Pterocaryoside A | –
C=C(C)C(O)CCC(C)(O)C1CCC2(C)C1C(OC1OC(COC(C)=O)C(O)C1O)CC1C(C)(CCC(=O)O)C(C(=C)C)CCC12C (stereo not drawn) [Compound B, 3-(4-(5-(acetoxymethyl)-3,4-dihydroxytetrahydrofuran-2-yloxy)-3-(2,5-dihydroxy-6-methylhept-6-en-2-yl)-6,9a,9b-trimethyl-7-(prop-1-en-2-yl)dodeca hydro-1H-cyclopenta[a]naphthalen-6-yl)propanoic acid] | 1 | slightly bitter off taste comparable to | –
C=C(C)C(O)C(O)CC(C)(O)C1CCC2(C)C1C(O[C@@H]1O[C@H](C)[C@@H](O)[C@H](O)[C@H]1O)CC1C(C)(CCC(=O)O)C(C(=C)C)CCC12C (stereo partly drawn) [Compound C, 3-(6,9a,9b-trimethyl-7-(prop-1-en-2-yl)-3-(2,4,5-trihydroxy-6-methylhept-6-en-2-yl)-4-((2R,3R,4S,5S,6R)-3,4,5-trihydroxy-6-methyltetrahydro-2H-pyran-2-yloxy)dodecahydro-1H-cyclopenta[a]naphthalen-6-yl)propanoic acid] | 3 | less bitter than Pterocaryoside A | –
C=C(C)C1CCC2(C)C(CC(O[C@@H]3OC[C@H](O)[C@H](O)[C@H]3O)C3C(C(C)=O)CCC32C)C1(C)CCC(=O)O (stereo partly drawn) [Compound E, 3-(3-acetyl-6,9a,9b-trimethyl-7-(prop-1-en-2-yl)-4-((2S,3R,4S,5S)-3,4,5-trihydroxytetrahydro-2H-pyran-2-yloxy)dodecahydro-1H-cyclopenta[a]naphthalen-6-yl)propanoic acid] | 3 | less bitter than Pterocaryoside A | –
C[C@H](CC[C@@H](O[C@@H]1O[C@H](CO[C@@H]2O[C@H](CO)[C@@H](O)[C@H](O)[C@H]2O)[C@@H](O)[C@H](O)[C@H]1O[C@@H]1O[C@H](CO)[C@@H](O)[C@H](O)[C@H]1O)C(C)(C)O)[C@H]1CC[C@@]2(C)[C@@H]3CC=C4[C@@H](CC[C@H](O[C@@H]5O[C@H](CO)[C@@H](O[C@@H]6O[C@H](CO)[C@@H](O)[C@H](O)[C@H]6O)[C@H](O)[C@H]5O)C4(C)C)[C@]3(C)[C@H](O)C[C@]12C [iso-mogroside V] | – | – | aftertaste [1]: certain bitter aftertaste
C[C@H](CC[C@@H](O[C@@H]1O[C@H](CO[C@@H]2O[C@H](CO)[C@@H](O)[C@H](O)[C@H]2O)[C@@H](O)[C@H](O)[C@H]1O[C@@H]1O[C@H](CO)[C@@H](O)[C@H](O)[C@H]1O)C(C)(C)O)[C@H]1CC[C@@]2(C)[C@@H]3CC=C4[C@@H](CC[C@H](O[C@@H]5O[C@H](CO[C@@H]6O[C@H](CO)[C@@H](O)[C@H](O)[C@H]6O)[C@@H](O)[C@H](O)[C@H]5O)C4(C)C)[C@]3(C)[C@H](O)C[C@]12C [mogroside V] | – | – | aftertaste [1]: certain bitter aftertaste
Pterocaryoside A | – | strong bitter and slightly hot off-taste | sweetness compared with the sucrose solution (in words) (panel of 4 panelists; solution at desired 0.4 mg/ml, not completely dissolved, vs sucrose 20 mg/ml): comparable to the sweetness of the sucrose solution; off-taste (panel): persistent, mildly bitter, off-taste; onset of sweetness (panel): instantaneous; sweetness relative to sucrose (panel): about 50 times sweeter than 2% sucrose; solubility at the desired concentration [2]: not completely soluble
Pterocaryoside B | – | – | off-taste (panel): persistent, mildly bitter, off-taste; onset of sweetness (panel): instantaneous; sweetness relative to sucrose (panel): about 100 times sweeter than 2% sucrose
